Assays:
Assay in all cases: combination Emax (second highest fraction inhibited in the dose matrix, 72 h); higher = more inhibition; extreme values may be limits of the assay
[1] = tested on: LS-123 (Colorectal Carcinoma)
Method in brief: (§1)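 Cell lines grown in DMEM/F12 or RPMI with 10% FBS were plated in 1536-well plates and held 24 hours at 37°C, 5% CO2 before 72 hours of exposure to two-drug dose matrices, with DMSO typically at 0.2%. CellTiter-Glo 2.0 luminescence gave viability, which was converted to inhibition. Vehicle wells were set to 0 and blank wells to 1. Combination Emax is the second-highest inhibition in the matrix, and Bliss excess is the observed combination effect minus the expected EA + EB − EA·EB, where EA and EB are the single-agent effects.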

[2] = tested on: SNU-16 (Gastric Carcinoma)
Method in brief: as §1

[3] = tested on: NUGC-4 (Gastric Carcinoma)
Method in brief: as §1

[4] = tested on: ESS-1 (Other Solid Carcinomas)
Method in brief: as §1

[5] = tested on: NCI-H209 (Small Cell Lung Carcinoma)
Method in brief: as §1

[6] = tested on: CAL-33 (Oral Cavity Carcinoma)
Method in brief: as §1

[7] = tested on: NCI-H1568 (Lung Adenocarcinoma)
Method in brief: as §1

MPP-89 (Mesothelioma) = tested on: MPP-89 (Mesothelioma)
Method in brief: as §1

[8] = tested on: ALL-PO (B-Lymphoblastic Leukemia)
Method in brief: as §1

[9] = tested on: KYAE-1 (Esophageal Adenocarcinoma)
Method in brief: as §1

[10] = tested on: SW1573 (Lung Adenocarcinoma)
Method in brief: as §1

[11] = tested on: OE21 (Esophageal Squamous Cell Carcinoma)
Method in brief: as §1

[12] = tested on: BFTC-909 (Kidney Carcinoma)
Method in brief: as §1

[13] = tested on: SW1710 (Bladder Carcinoma)
Method in brief: as §1

BE2-M17 (Neuroblastoma) = tested on: BE2-M17 (Neuroblastoma)
Method in brief: as §1

KS-1 (Glioblastoma) = tested on: KS-1 (Glioblastoma)
Method in brief: as §1

[14] = tested on: KMRC-20 (Kidney Carcinoma)
Method in brief: as §1

[15] = tested on: YAPC (Pancreatic Carcinoma)
Method in brief: as §1

[16] = tested on: LNZTA3WT4 (Low Grade Glioma)
Method in brief: as §1

[17] = tested on: FTC-133 (Thyroid Gland Carcinoma)
Method in brief: as §1

COc1cc2c(cc1OCCCCCOc1cc3c(cc1OC)C(=O)N1C=C(C)C[C@H]1C=N3)N=C[C@@H]1CC(C)=CN1C2=O [SG3199] + O=C(c1cc(Cc2n[nH]c(=O)c3ccccc23)ccc1F)N1CCN(C(=O)C2CC2)CC1 [Olaparib] (first compound max 0.001 µM, 7x7, partner max 10 µM)
combination Emax [1]: 0.187
combination Emax [2]: 0.363
combination Emax [3]: 0.219
combination Emax [4]: 0.346
combination Emax [5]: 0.913
combination Emax [6]: 0.143
combination Emax [7]: 0.191
combination Emax (MPP-89 (Mesothelioma)): 0.0885
combination Emax [8]: 0.646
combination Emax [9]: 0.128
combination Emax [10]: 0.102
combination Emax [11]: 0.133
combination Emax [12]: 0.0989
combination Emax [13]: 0.112
combination Emax (BE2-M17 (Neuroblastoma)): 0.299
combination Emax (KS-1 (Glioblastoma)): 0.127
combination Emax [14]: 0.128
combination Emax [15]: 0.0017
combination Emax [16]: 0.0132
combination Emax [17]: 0.134

C[C@@H](c1ccc2nccn2c1)n1nnc2ncc(-c3cnn(C)c3)nc21 [Savolitinib] + CC1(C)CCC(CN2CCN(c3ccc(C(=O)NS(=O)(=O)c4ccc(NCC5CCOCC5)c([N+](=O)[O-])c4)c(Oc4cnc5[nH]ccc5c4)c3)CC2)=C(c2ccc(Cl)cc2)C1 [Venetoclax] (first compound max 1 µM, 7x7, partner max 1 µM)
combination Emax [1]: 0.148
combination Emax [2]: 0.129
combination Emax [3]: 0.167
combination Emax [4]: 0.136
combination Emax [5]: 0.373
combination Emax [6]: 0.154
combination Emax [7]: 0.0767
combination Emax (MPP-89 (Mesothelioma)): 0.261
combination Emax [8]: 0.337
combination Emax [9]: 0.0925
combination Emax [10]: 0.052
combination Emax [11]: 0.0581
combination Emax [12]: 0.242
combination Emax [13]: 0.0997
combination Emax (BE2-M17 (Neuroblastoma)): 0.0964
combination Emax (KS-1 (Glioblastoma)): 0.152
combination Emax [14]: 0.148
combination Emax [15]: 0.113
combination Emax [16]: 0.162
combination Emax [17]: 0.17

C[C@@H](c1ccc2nccn2c1)n1nnc2ncc(-c3cnn(C)c3)nc21 [Savolitinib] + Cc1c2c(nn1C)CSCc1cc(n(C)n1)CSc1cc(c3ccccc3c1)OCCCc1c(C(=O)O)n(C)c3c-2c(Cl)ccc13 [AZD5991] (first compound max 1 µM, 7x7, partner max 1 µM)
combination Emax [1]: 0.211
combination Emax [2]: 0.947
combination Emax [3]: 0.221
combination Emax [4]: 0.16
combination Emax [5]: 0.323
combination Emax [6]: 0.181
combination Emax [7]: 0.147
combination Emax (MPP-89 (Mesothelioma)): 0.237
combination Emax [8]: 1
combination Emax [9]: 0.137
combination Emax [10]: 0.133
combination Emax [11]: 0.355
combination Emax [12]: 0.179
combination Emax [13]: 0.105
combination Emax (BE2-M17 (Neuroblastoma)): 0.129
combination Emax (KS-1 (Glioblastoma)): 0.132
combination Emax [14]: 0.195
combination Emax [15]: 0.11
combination Emax [16]: 0.222
combination Emax [17]: 0.176

From the supplement of paper PMC11061612
